In brackets after ≈: the same amount, converted by molar mass. Values belong to the molecule of their own block, whether it stands above or below them.
How the values were obtained:
HCT-116 [1] = test: Antiproliferative activity against human HCT116 after 48 hrs by MTT assay; format: functional; settings: HCT-116, 48 h
A549 [2] = test: Antiproliferative activity against human A549 after 48 hrs by MTT assay; format: functional; settings: A549, 48 h
MCF7 [3] = test: Antiproliferative activity against human MCF7 after 48 hrs by MTT assay; format: functional; settings: MCF7, 48 h
DU-145 = test: Antiproliferative activity against human DU145 after 48 hrs by MTT assay; format: functional; settings: DU-145, 48 h
HCT-15 = test: Antiproliferative activity against human HCT15 after 48 hrs by MTT assay; format: functional; settings: HCT-15, 48 h
MDA-MB-453 = test: Antiproliferative activity against human MDA-MB-453 after 48 hrs by MTT assay; format: functional; settings: MDA-MB-453, 48 h
BT-549 = test: Antiproliferative activity against human BT549 after 48 hrs by MTT assay; format: functional; settings: BT-549, 48 h
HT-29 = test: Antiproliferative activity against human HT-29 after 48 hrs by MTT assay; format: functional; settings: HT-29, 48 h
Rattus norvegicus = test: Antiinflammatory activity in Sprague-Dawley rat assessed as inhibition of carrageenan-induced edema at 10 mg/kg, po pretreated for 1 hr followed by carrageenan challenge and measured after 4 hrs by mercury plethysmometer relative to control; format: functional
Escherichia coli [4] = test: Antibacterial activity against Escherichia coli ATCC 25922 assessed as diameter of zone inhibition at 30 ug/ml; format: functional; settings: read-out: DIZ
Staphylococcus aureus [5] = test: Antibacterial activity against Staphylococcus aureus ATCC 25923 assessed as diameter of zone inhibition at 30 ug/ml; format: functional; settings: read-out: DIZ
Candida albicans = test: Antifungal activity against Candida albicans ATCC 653/885 assessed as diameter of zone inhibition at 30 ug/ml; format: functional; settings: read-out: DIZ
Bacillus subtilis [6] = test: Antibacterial activity against Bacillus subtilis ATCC 6633 assessed as diameter of zone inhibition at 30 ug/ml; format: functional; settings: read-out: DIZ
Staphylococcus aureus [7] = test: Antibacterial activity against Staphylococcus aureus ATCC 25923 assessed as diameter of zone inhibition at 100 ug/ml; format: functional; settings: read-out: DIZ
Escherichia coli [8] = test: Antibacterial activity against Escherichia coli ATCC 25922 assessed as diameter of zone inhibition at 100 ug/ml; format: functional; settings: read-out: DIZ
Bacillus subtilis [9] = test: Antibacterial activity against Bacillus subtilis ATCC 6633 assessed as diameter of zone inhibition at 100 ug/ml; format: functional; settings: read-out: DIZ
HCT-116 [10] = test: Antiproliferative activity against human HCT116 after 18 hrs by MTT assay; format: functional, cell-based; settings: HCT-116, 18 h
A549 [11] = test: Antiproliferative activity against human A549 after 18 hrs by MTT assay; format: functional, cell-based; settings: A549, 18 h
MCF7 [12] = test: Antiproliferative activity against human MCF7 after 18 hrs by MTT assay; format: functional, cell-based; settings: MCF7, 18 h
Aspergillus niger [13] = test: Antifungal activity against Aspergillus niger assessed as diameter of zone inhibition at 0.1% incubated for 24 hrs by stiff plate agar diffusion method; format: functional
Aspergillus niger [14] = test: Antifungal activity against Aspergillus niger assessed as diameter of zone inhibition at 0.5% incubated for 24 hrs by stiff plate agar diffusion method; format: functional
Aspergillus niger [15] = test: Antifungal activity against Aspergillus niger incubated for 24 to 72 hrs by Serial dilution method; format: functional
Escherichia coli [16] = test: Antibacterial activity against Escherichia coli assessed as diameter of zone inhibition at 0.5% incubated for 24 hrs by stiff plate agar diffusion method; format: functional
Staphylococcus aureus [17] = test: Antibacterial activity against Staphylococcus aureus assessed as diameter of zone inhibition at 0.5% incubated for 24 hrs by stiff plate agar diffusion method; format: functional
Rhodococcus fascians = test: Antibacterial activity against Mycobacterium luteum assessed as diameter of zone inhibition at 0.5% incubated for 24 hrs by stiff plate agar diffusion method; format: functional, Rhodococcoides fascians
[18] = Inhibition of PTK (unknown origin) using poly-Glu-Tyr (PGT) as substrate by ELISA; set-up: species or system Homo sapiens
HEp-2 = test: Antiproliferative activity against human Hep2 after 24 hrs by MTT assay; format: functional, cell-based; settings: HEp-2, 24 h
MCF7 [19] = test: Antiproliferative activity against human MCF7 after 24 hrs by MTT assay; format: functional, cell-based; settings: MCF7, 24 h
PC-3 = test: Antiproliferative activity against human PC3 after 24 hrs by MTT assay; format: functional, cell-based; settings: PC-3, 24 h
HepG2 = test: Antiproliferative activity against human HepG2 after 24 hrs by MTT assay; format: functional, cell-based; settings: HepG2, 24 h
HeLa = test: Antiproliferative activity against human HeLa after 24 hrs by MTT assay; format: functional, cell-based

GI50 (HCT-116 [1]): 3.5 µM
GI50 (A549 [2]): 8.6 µM
GI50 (MCF7 [3]): 3.3 µM
GI50 (DU-145): 7.5 µM
GI50 (HCT-15): 3.6 µM
GI50 (MDA-MB-453): 8.2 µM
GI50 (BT-549): > 10 µM
GI50 (HT-29): > 10 µM
Structure (SMILES): Cc1ccc([N+](=O)[O-])c(C(=O)Nc2cccc(Nc3ncnc4sccc34)c2)c1

Structure (SMILES): COc1ccc2c(c1)c(CC(=O)O)c(C)n2C(=O)c1ccc(Cl)cc1 [INDOMETHACIN]
inhibition in vivo at 10 mg/kg (Rattus norvegicus): 49.1%

Structure (SMILES): Cc1ncc([N+](=O)[O-])n1CCO [METRONIDAZOLE]
zone of inhibition at 30 µg/mL (Escherichia coli [4]): 14 mm
zone of inhibition at 30 µg/mL (Staphylococcus aureus [5]): 14 mm
zone of inhibition at 30 µg/mL (Candida albicans): 14 mm
zone of inhibition at 30 µg/mL (Bacillus subtilis [6]): 16 mm

Structure (SMILES): Cc1c(-c2nnc(-c3ccccc3)o2)sc2c1c(=O)n(-c1ccccc1)c(=O)n2Cc1nc(-c2ccc(Cl)cc2)no1
zone of inhibition at 100 µg/mL (Staphylococcus aureus [7]): 15 mm
zone of inhibition at 100 µg/mL (Escherichia coli [8]): 14 mm
zone of inhibition at 100 µg/mL (Bacillus subtilis [9]): 17 mm

GI50 (HCT-116 [1]): 10.2 µM
GI50 (A549 [2]): 4.3 µM
GI50 (MCF7 [3]): 1.6 µM
GI50 (DU-145): 9.2 µM
GI50 (HCT-15): > 10 µM
GI50 (MDA-MB-453): > 10 µM
GI50 (BT-549): 1.3 µM
GI50 (HT-29): > 10 µM
Structure (SMILES): O=C(Nc1cccc(Nc2ncnc3sccc23)c1)c1ccc(F)cc1

IC50 (HCT-116 [10]): 53.9 µM
IC50 (A549 [11]): 144 µM
IC50 (MCF7 [12]): 13.5 µM
Structure (SMILES): Cc1ccc(-c2cc(COc3ncnc4sc(C)cc34)on2)cc1

Structure (SMILES): CCCCCc1sc2nc[nH]c(=[Se])c2c1CCCCC
diameter of the inhibition zone (DIZ) (Aspergillus niger [13]): 12 mm
diameter of the inhibition zone (DIZ) (Aspergillus niger [14]): 22 mm
MIC (Aspergillus niger [15]): 31.2 µg/mL (≈ 87.8 µM)
diameter of the inhibition zone (DIZ) (Escherichia coli [16]): 14 mm

MIC (Aspergillus niger [15]): 31.2 µg/mL (≈ 101 µM)
Structure (SMILES): CCOC(=O)CSc1ncnc2sc(CC)c(CC)c12

Structure (SMILES): Cc1sc2nc[nH]c(=[Se])c2c1C
diameter of the inhibition zone (DIZ) (Aspergillus niger [14]): 12 mm
diameter of the inhibition zone (DIZ) (Escherichia coli [16]): 14.7 mm

Structure (SMILES): CCc1sc2ncnc(SCC(=O)NS(=O)(=O)c3ccc(Cl)cc3)c2c1CC
diameter of the inhibition zone (DIZ) (Staphylococcus aureus [17]): 12 mm
diameter of the inhibition zone (DIZ) (Rhodococcus fascians): 17 mm

Structure (SMILES): Cc1c(-c2nnc(-c3ccccc3)o2)sc2c1c(=O)n(-c1ccccc1)c(=O)n2Cc1nc(-c2ccccc2)no1
zone of inhibition at 100 µg/mL (Staphylococcus aureus [7]): 15 mm
zone of inhibition at 100 µg/mL (Escherichia coli [8]): 14 mm
zone of inhibition at 100 µg/mL (Bacillus subtilis [9]): 17 mm

GI50 (HCT-116 [1]): 5.8 µM
GI50 (A549 [2]): 4.6 µM
GI50 (MCF7 [3]): 0.8 µM
GI50 (DU-145): 5.4 µM
GI50 (HCT-15): 5.1 µM
GI50 (MDA-MB-453): 0.9 µM
GI50 (BT-549): 3.1 µM
GI50 (HT-29): > 10 µM
Structure (SMILES): O=C(/C=C/c1cccc(C(F)(F)F)c1)Nc1cccc(Nc2ncnc3sccc23)c1

IC50 [18]: 136 µM
IC50 (MCF7 [19]): 6.84 µM
IC50 (PC-3): 7.71 µM
IC50 (HepG2): 7.99 µM
IC50 (HeLa): 4.3 µM
Structure (SMILES): Cc1ccc(/C=C/C(=O)c2sc3nc(S)n(-c4ccccc4)c(=O)c3c2C)cc1
IC50 (HEp-2): 5.4 µM

Structure (SMILES): CN[C@@H]1[C@H](O[C@H]2[C@H](O[C@H]3[C@H](O)[C@@H](O)[C@H](N=C(N)N)[C@@H](O)[C@@H]3N=C(N)N)O[C@@H](C)[C@]2(O)C=O)O[C@@H](CO)[C@H](O)[C@H]1O [STREPTOMYCIN]
zone of inhibition at 30 µg/mL (Escherichia coli [4]): 16 mm
zone of inhibition at 30 µg/mL (Staphylococcus aureus [5]): 15 mm
zone of inhibition at 30 µg/mL (Bacillus subtilis [6]): 17 mm

IC50 [18]: 203 µM
IC50 (MCF7 [19]): 17.1 µM
IC50 (PC-3): 16.4 µM
IC50 (HepG2): 20.6 µM
IC50 (HeLa): 12.9 µM
Structure (SMILES): COc1cc(/C=C/C(=O)c2sc3nc(S)n(-c4ccccc4)c(=O)c3c2C)cc(OC)c1OC
IC50 (HEp-2): 22.1 µM

Structure (SMILES): Cc1c(-c2nnc(-c3ccccc3)o2)sc2c1c(=O)n(-c1ccccc1)c(=O)n2Cc1nc(-c2ccccc2Cl)no1
zone of inhibition at 100 µg/mL (Staphylococcus aureus [7]): 15 mm
zone of inhibition at 100 µg/mL (Escherichia coli [8]): 14 mm
zone of inhibition at 100 µg/mL (Bacillus subtilis [9]): 17 mm
